Laboratory results as given in US20100291204A1, “COMBINATION OF A LONG-ACTING HYPNOTIC AGENT AND A SHORT-ACTING HYPNOTIC AGENT AND THERAPEUTIC USE THEREOF” (SANOFI-AVENTIS, priority 2005, published 2010).
Marks after values point to notes of the source that are not given here.

How the values were obtained:
[1] = tested on: male Sprague-Dawley rats; assay: Effects on sleep in rats (6 hours of recording, day 1 versus vehicle day 0); assay type: in vivo, rat; conditions: for Lag time of appearance of NREM sleep: change versus vehicle control; for Duration of NREM sleep / Duration of sleep: total over 6 hours of recording
Procedure: For this study, four groups of male Sprague-Dawley rats are used, each group comprising from 5 to 9 rats.
Group A receives eplivanserin (oral route, hemifumarate) at a dose of 3 mg/kg p.o.
Group B receives zolpidem (oral route, hemitartrate) at a dose of 3 mg/kg p.o.
Group C receives (orally) in combination 3 mg/kg p.o. of eplivanserin hemifumarate and 3 mg/kg of zolpidem hemitartrate, the two compounds being administered with an interval of 5 minutes.
Finally, group D receives zolpidem (oral route, hemitartrate) at a dose of 10 mg/kg p.o.
The data are recorded on day 0 (control day), when the animals receive only a vehicle (distilled water and methylcellulose) and on day 1 when the animals receive the active principles.
The data are recorded for 6 hours each day, the active principles being administered 15 minutes before the start of recording.
In Table I, the results are expressed as percentages relative to the control groups receiving only the vehicle, unless otherwise indicated.
Duration of sleep: total duration of sleep during the 6 hours of recording. Duration of NREM sleep: total duration of NREM sleep during the 6 hours of recording. Lag time of appearance of NREM sleep: time measured from the start of the recording up to the moment of the first period of NREM sleep. Mean duration of the periods of NREM sleep: duration of NREM sleep/number of periods of NREM sleep during the 6 hours of recording.

[2] = cited from earlier work; for bioavailability: in vivo
[3] = Group B: zolpidem hemitartrate 3 mg/kg p.o., relative to vehicle control
[4] = Group D: zolpidem hemitartrate 10 mg/kg p.o., 6 hours of recording, relative to vehicle control
[5] = Group D: zolpidem hemitartrate 10 mg/kg p.o., relative to vehicle control

CN(C)CCO/N=C(/C=C/c1ccc(O)cc1)c1ccccc1F [eplivanserin]
Lag time of appearance of NREM sleep ([1]; Group A: eplivanserin hemifumarate 3 mg/kg p.o., from start of recording to first period of NREM sleep): +0.6 min
bioavailability [2]: 80%

Cc1ccc(-c2nc3ccc(C)cn3c2CC(=O)N(C)C)cc1 [zolpidem]
Mean duration of the periods of NREM sleep ([1]; Group B: zolpidem hemitartrate 3 mg/kg p.o., 6 hours of recording, relative to vehicle control): −15%
Lag time of appearance of NREM sleep ([1]; Group B: zolpidem hemitartrate 3 mg/kg p.o., from start of recording to first period of NREM sleep): -6 min
Duration of NREM sleep [1, 3]: +4%
Duration of sleep [1, 3]: −2%
Mean duration of the periods of NREM sleep [1, 4]: +31%**
Mean number of periods of NREM sleep [1, 4]: +1%
Lag time of appearance of NREM sleep ([1]; Group D: zolpidem hemitartrate 10 mg/kg p.o.): -1.2 min
Duration of NREM sleep [1, 5]: +33%**
Duration of sleep [1, 5]: −20%**
bioavailability [2]: 70%
duration of action ([2]; mean dose between 5 and 10 mg in a conventional formulation): up to 6 hours
